Tests used:
Design in all cases: scale not given: the % may be the effect or the level left
[1] = biological target: T1, Non-receptor tyrosine-protein kinase TNK1 (Homo sapiens) (UniProt Q13470); assay: Inhibition of human TNK1 assessed as enzyme activity at 1 uM using poly[Glu:Tyr] (4:1) as substrate preincubated for 20 mins followed by [gamma-33P]-ATP addition and measured after 120 mins by radiometric Hot-SpotSM Kinase assay relative to control
T1 sequence (whole entry): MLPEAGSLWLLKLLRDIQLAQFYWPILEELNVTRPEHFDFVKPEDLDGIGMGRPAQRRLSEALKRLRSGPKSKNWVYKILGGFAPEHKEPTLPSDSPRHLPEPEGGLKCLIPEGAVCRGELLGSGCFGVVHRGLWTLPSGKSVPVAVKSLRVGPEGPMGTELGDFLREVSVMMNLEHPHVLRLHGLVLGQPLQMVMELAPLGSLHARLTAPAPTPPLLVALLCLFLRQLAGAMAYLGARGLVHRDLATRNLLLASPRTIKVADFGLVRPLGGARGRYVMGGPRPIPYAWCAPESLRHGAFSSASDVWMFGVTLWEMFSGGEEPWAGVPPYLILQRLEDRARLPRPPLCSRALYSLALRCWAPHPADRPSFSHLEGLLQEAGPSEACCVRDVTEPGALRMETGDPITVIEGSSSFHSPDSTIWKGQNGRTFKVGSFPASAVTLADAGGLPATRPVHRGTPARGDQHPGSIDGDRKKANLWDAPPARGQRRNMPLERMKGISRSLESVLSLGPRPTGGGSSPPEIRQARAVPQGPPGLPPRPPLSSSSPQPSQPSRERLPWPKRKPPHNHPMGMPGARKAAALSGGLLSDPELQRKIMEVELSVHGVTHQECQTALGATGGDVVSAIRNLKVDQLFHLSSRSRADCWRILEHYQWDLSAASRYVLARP

[2] = biological target: Serine/threonine-protein kinase 32B (Homo sapiens) (UniProt Q9NY57); assay: Inhibition of human STK32B assessed as enzyme activity at 1 uM using myelin basic protein as substrate preincubated for 20 mins followed by [gamma-33P]-ATP addition and measured after 120 mins by radiometric Hot-SpotSM Kinase assay relative to control
[3] = biological target: T2, Mitogen-activated protein kinase 15 (Homo sapiens) (UniProt Q8TD08); assay: Inhibition of human ERK7 assessed as enzyme activity at 1 uM using myelin basic protein as substrate preincubated for 20 mins followed by [gamma-33P]-ATP addition and measured after 120 mins by radiometric Hot-SpotSM Kinase assay relative to control
T2 sequence (whole entry): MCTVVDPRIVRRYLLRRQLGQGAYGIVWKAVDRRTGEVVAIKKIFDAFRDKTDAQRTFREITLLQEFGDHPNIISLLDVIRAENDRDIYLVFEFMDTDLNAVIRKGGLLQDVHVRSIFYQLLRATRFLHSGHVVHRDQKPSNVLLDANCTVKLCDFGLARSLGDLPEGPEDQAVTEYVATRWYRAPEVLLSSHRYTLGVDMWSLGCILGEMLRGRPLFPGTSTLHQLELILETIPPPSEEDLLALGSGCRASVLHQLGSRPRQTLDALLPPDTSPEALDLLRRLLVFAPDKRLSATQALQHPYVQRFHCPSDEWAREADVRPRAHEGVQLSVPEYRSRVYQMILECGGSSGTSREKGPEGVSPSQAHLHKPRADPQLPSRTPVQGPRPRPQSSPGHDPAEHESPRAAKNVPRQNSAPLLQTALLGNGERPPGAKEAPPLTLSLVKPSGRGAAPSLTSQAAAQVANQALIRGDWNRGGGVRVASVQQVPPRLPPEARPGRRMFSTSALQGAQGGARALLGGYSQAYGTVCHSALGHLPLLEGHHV

[4] = biological target: T3, Myosin light chain kinase (Homo sapiens) (UniProt Q32MK0); assay: Inhibition of human MYLK3 assessed as enzyme activity at 1 uM using KKRPQRRYSNVF as substrate preincubated for 20 mins followed by [gamma-33P]-ATP addition and measured after 120 mins by radiometric Hot-SpotSM Kinase assay relative to control
T3 sequence (whole entry): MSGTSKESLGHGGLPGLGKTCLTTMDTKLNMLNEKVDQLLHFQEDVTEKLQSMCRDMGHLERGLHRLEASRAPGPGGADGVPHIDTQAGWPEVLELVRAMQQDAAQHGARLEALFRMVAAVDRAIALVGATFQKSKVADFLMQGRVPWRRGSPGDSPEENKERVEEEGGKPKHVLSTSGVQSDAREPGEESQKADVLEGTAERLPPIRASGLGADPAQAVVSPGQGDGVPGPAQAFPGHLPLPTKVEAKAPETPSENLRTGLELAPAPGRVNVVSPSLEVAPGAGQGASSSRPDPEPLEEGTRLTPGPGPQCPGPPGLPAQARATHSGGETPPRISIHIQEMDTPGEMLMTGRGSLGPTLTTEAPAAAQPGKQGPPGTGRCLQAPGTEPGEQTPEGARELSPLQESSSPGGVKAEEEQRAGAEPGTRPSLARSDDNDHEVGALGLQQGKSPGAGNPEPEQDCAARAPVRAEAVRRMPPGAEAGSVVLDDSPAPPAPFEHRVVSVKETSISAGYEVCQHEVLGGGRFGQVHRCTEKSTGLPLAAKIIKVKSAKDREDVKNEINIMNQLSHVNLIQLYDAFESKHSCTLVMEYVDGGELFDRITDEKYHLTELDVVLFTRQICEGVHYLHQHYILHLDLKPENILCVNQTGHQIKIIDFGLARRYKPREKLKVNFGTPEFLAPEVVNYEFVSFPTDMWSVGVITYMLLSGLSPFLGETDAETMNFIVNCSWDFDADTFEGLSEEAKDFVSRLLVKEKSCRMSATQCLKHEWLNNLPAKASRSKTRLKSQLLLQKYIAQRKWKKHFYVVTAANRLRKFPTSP

[5] = biological target: Dual specificity protein kinase CLK4 (Homo sapiens) (UniProt Q9HAZ1); assay: Inhibition of human CLK4 assessed as enzyme activity at 1 uM using myelin basic protein as substrate preincubated for 20 mins followed by [gamma-33P]-ATP addition and measured after 120 mins by radiometric Hot-SpotSM Kinase assay relative to control
[6] = biological target: Fibroblast growth factor receptor 3 (Homo sapiens) (UniProt P22607); assay: Inhibition of human FGFR3 assessed as enzyme activity at 1 uM using poly[Glu:Tyr] (4:1) as substrate preincubated for 20 mins followed by [gamma-33P]-ATP addition and measured after 120 mins by radiometric Hot-SpotSM Kinase assay relative to control
[7] = biological target: Ephrin type-A receptor 5 (Homo sapiens) (UniProt P54756); assay: Inhibition of human EPHA5 assessed as enzyme activity at 1 uM using poly[Glu:Tyr] (4:1) as substrate preincubated for 20 mins followed by [gamma-33P]-ATP addition and measured after 120 mins by radiometric Hot-SpotSM Kinase assay relative to control
[8] = biological target: Ribosomal protein S6 kinase beta-1 (Homo sapiens) (UniProt P23443); assay: Inhibition of human p70S6K assessed as enzyme activity at 1 uM using KKRNRTLTK as substrate preincubated for 20 mins followed by [gamma-33P]-ATP addition and measured after 120 mins by radiometric Hot-SpotSM Kinase assay relative to control
Chain of Ribosomal protein S6 kinase beta-1 (Homo sapiens) (P23443 whole entry, looked up): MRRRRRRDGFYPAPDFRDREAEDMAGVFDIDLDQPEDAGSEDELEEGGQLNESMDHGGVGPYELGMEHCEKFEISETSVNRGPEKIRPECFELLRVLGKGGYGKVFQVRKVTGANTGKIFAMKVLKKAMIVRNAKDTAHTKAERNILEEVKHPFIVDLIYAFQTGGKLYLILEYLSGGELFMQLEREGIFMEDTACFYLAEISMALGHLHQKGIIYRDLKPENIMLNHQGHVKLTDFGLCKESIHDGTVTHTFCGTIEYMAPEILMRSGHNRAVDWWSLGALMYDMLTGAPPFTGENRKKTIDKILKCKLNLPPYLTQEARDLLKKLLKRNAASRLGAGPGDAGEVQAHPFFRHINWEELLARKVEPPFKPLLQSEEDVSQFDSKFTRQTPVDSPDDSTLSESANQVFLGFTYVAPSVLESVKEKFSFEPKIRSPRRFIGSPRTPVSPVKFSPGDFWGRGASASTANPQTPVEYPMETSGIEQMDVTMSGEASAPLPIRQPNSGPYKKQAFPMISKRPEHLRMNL

Chain of Serine/threonine-protein kinase 32B (Homo sapiens) (Q9NY57 whole entry): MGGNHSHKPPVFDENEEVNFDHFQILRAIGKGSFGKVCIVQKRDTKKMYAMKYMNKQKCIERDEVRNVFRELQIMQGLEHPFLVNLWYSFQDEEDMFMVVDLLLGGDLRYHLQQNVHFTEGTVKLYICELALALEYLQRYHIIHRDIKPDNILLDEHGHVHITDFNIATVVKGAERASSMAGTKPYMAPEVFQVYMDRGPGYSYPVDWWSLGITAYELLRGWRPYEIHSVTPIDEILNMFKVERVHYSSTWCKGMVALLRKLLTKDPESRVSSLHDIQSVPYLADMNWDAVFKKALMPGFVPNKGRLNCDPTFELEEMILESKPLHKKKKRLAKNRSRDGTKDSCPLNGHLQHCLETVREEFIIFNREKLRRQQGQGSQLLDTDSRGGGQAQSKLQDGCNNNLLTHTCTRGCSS
Chain of Ephrin type-A receptor 5 (Homo sapiens) (P54756 whole entry): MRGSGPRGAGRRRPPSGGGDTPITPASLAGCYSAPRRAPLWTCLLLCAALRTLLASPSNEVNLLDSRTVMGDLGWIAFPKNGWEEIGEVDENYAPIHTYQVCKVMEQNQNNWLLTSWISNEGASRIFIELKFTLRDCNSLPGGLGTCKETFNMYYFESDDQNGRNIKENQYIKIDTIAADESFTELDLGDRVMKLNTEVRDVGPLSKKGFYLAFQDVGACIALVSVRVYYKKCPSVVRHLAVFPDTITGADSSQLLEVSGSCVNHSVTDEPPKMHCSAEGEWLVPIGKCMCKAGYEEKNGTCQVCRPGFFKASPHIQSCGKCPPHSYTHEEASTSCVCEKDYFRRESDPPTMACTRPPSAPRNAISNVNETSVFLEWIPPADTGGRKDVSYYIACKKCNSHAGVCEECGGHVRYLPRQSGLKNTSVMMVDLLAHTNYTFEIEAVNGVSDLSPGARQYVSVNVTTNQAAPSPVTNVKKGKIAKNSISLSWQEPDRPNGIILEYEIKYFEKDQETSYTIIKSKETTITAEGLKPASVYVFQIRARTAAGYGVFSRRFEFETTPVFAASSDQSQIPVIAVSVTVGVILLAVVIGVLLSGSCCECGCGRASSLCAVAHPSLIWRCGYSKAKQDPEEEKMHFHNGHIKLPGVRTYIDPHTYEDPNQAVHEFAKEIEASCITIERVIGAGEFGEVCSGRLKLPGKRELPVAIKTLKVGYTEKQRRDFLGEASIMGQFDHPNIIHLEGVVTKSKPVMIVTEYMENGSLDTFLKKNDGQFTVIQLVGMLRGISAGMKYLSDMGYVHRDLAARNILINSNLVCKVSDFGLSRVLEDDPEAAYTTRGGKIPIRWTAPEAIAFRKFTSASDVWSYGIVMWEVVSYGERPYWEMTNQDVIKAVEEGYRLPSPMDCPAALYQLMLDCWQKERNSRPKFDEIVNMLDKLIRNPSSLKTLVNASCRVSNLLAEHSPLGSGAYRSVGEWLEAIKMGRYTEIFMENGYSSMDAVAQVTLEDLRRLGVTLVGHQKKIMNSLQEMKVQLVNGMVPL
Chain of Fibroblast growth factor receptor 3 (Homo sapiens) (P22607 23-806 limits assumed): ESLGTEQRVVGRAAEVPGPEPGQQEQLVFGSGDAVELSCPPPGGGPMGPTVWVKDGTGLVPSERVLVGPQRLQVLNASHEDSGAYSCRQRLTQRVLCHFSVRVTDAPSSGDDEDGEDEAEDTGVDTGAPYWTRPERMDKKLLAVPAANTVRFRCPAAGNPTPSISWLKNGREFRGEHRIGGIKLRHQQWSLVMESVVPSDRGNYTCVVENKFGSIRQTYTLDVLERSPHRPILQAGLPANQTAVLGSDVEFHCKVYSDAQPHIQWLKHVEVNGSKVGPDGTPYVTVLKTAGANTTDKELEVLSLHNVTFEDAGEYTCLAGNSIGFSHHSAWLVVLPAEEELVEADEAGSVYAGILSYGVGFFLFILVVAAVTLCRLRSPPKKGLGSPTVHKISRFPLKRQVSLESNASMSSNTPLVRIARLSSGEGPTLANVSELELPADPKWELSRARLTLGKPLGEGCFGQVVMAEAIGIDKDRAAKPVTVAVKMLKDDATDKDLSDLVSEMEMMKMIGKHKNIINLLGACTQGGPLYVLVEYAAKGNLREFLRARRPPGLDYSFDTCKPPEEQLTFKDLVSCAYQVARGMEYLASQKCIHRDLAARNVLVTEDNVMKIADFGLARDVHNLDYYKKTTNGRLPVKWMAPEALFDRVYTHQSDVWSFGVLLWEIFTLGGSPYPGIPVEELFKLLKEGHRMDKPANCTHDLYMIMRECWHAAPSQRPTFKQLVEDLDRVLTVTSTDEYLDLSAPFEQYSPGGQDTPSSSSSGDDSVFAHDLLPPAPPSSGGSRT
Chain of Dual specificity protein kinase CLK4 (Homo sapiens) (Q9HAZ1 whole entry, looked up): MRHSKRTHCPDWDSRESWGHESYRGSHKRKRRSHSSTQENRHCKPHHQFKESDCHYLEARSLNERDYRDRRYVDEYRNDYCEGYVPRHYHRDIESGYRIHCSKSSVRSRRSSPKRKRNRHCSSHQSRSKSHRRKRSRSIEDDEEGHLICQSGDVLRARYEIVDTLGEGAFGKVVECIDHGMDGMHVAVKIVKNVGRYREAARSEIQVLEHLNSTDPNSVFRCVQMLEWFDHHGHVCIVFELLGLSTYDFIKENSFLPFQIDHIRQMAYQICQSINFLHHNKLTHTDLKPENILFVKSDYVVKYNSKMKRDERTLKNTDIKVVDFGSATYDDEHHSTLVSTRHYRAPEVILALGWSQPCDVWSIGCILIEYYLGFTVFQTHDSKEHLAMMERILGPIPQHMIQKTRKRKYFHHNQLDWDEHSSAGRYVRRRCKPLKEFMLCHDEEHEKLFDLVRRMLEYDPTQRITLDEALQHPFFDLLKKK

Structure (SMILES)	Activity [1]	Activity [2]	Activity [3]	Activity [4]	Activity [5]	Activity [6]	Activity [7]	Activity [8]
CC[C@H](Nc1ncnc2[nH]cnc12)c1nc2cccc(F)c2c(=O)n1-c1ccccc1	86.3%	120%	94.3%	91.8%	103%	88.8%	105%	96.5%
C[C@H](Nc1ncnc2nc[nH]c12)c1cc2cccc(Cl)c2c(=O)n1-c1ccccc1	87.5%	116%	98.5%	98.2%	107%	93.2%	104%	97.2%
CC(C)Oc1ccc(-c2nn([C@@H](C)c3oc4ccc(F)cc4c(=O)c3-c3cccc(F)c3)c3ncnc(N)c23)cc1F [UMBRALISIB]	88.9%	114%	88.3%	105%	116%	94.3%	103%	97.9%
